Experimental data published in article PMC10282079, “Design, synthesis, in vitro anti-α-glucosidase evaluations, and computational studies of new phthalimide-phenoxy-1,2,3-triazole-N-phenyl (or benzyl) acetamides as potential anti-diabetic agents” (Scientific Reports, 2023).

Key:
yeast α-glucosidase = target: T1, yeast α-glucosidase (Saccharomyces cerevisiae, UniProt P53341); assay: biochemical; assay type: biochemical; settings: for IC50: yeast α-glucosidase, mean ± SD of three independent experiments; for α-glucosidase inhibitory activity in words: SAR discussion of Table 1
T1 construct: purchased Sigma-Aldrich
Method: The in vitro enzymatic inhibitory activity of phthalimide-phenoxy-1,2,3-triazole-N-phenyl (or benzyl) acetamide 11a–n was evaluated against yeast α-glucosidase.
The change in absorbance was measured at 405 nm using by a standard spectrophotometer (Gen5, Power wave xs2, BioTek, America).

α-glucosidase = target: T2, α-glucosidase (Saccharomyces cerevisiae, UniProt P53341); assay: Kinetic study of α-glucosidase inhibition (Lineweaver–Burk); assay type: biochemical
T2 construct: purchased Sigma-Aldrich
Method: For this purpose, the reaction rates in the presence of different concentrations of compound 11j were measured in various concentrations of substrate (p-nitrophenyl-a-D-glucopyranoside). Graphs of different concentrations of inhibitor were drawn by the Lineweaver–Burk plot (Fig. 2a). […] The Ki value was calculated directly by plotting the slope of each line in the Lineweaver–Burk plots into the different concentrations of compound 11j (Fig. 2b).
The 20 µL of α-glucosidase solution (1 U/mL) was incubated with different concentrations of compound 11j (0, 12, 23 and 46 µM) for 15 min at 30 °C. The reaction was then started by adding different concentrations of substrate (1–10 mM) and change in absorbance was measured for 20 min at 405 nm using by spectrophotometer (Gen5, Power wave xs2, BioTek, America).

T1 sequence (P53341 whole entry): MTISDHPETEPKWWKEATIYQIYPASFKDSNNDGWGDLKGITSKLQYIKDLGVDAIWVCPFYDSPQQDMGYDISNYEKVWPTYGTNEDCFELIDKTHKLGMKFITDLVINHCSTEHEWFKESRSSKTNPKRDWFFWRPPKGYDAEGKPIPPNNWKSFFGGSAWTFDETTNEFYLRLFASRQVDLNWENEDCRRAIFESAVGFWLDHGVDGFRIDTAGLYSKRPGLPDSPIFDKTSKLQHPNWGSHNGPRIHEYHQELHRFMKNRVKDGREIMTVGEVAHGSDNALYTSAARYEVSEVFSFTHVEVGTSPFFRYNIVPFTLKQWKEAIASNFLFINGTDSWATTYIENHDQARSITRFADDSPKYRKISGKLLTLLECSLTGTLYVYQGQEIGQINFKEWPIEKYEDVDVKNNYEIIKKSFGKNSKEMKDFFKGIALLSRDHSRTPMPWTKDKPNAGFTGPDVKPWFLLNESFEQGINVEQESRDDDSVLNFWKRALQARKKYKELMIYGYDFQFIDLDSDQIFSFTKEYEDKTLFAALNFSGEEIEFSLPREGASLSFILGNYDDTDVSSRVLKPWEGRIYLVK
T2 sequence (P53341 whole entry): as above

SMILES	melting point [°C]	IC50 (yeast α-glucosidase) [µM]	Fold less potent than compound 11a (yeast α-glucosidase; ratio of IC50 values) [fold]	α-glucosidase inhibitory activity in words (yeast α-glucosidase)	Inhibition mode (α-glucosidase; Lineweaver–Burk plot)	Ki (α-glucosidase; secondary re-plot of Lineweaver–Burk slopes, substrate p-nitrophenyl-a-D-glucopyranoside) [µM]
O=C(Cn1cc(COc2ccc(N3C(=O)c4ccccc4C3=O)cc2)nn1)Nc1ccccc1 [Compound 11a, 2-(4-((4-(1,3-dioxoisoindolin-2-yl)phenoxy)methyl)-1H-1,2,3-triazol-1-yl)-N-phenylacetamide]	218 to 220	203.8 ± 0.32				
Cc1cccc(NC(=O)Cn2cc(COc3ccc(N4C(=O)c5ccccc5C4=O)cc3)nn2)c1C [Compound 11b, N-(2,3-dimethylphenyl)-2-(4-((4-(1,3-dioxoisoindolin-2-yl)phenoxy)methyl)-1H-1,2,3-triazol-1-yl)acetamide]	206 to 208	366.1 ± 0.86	1.8			
Cc1cccc(C)c1NC(=O)Cn1cc(COc2ccc(N3C(=O)c4ccccc4C3=O)cc2)nn1 [Compound 11c, N-(2,6-dimethylphenyl)-2-(4-((4-(1,3-dioxoisoindolin-2-yl)phenoxy)methyl)-1H-1,2,3-triazol-1-yl)acetamide]	209 to 211			inactive		
CCc1ccc(NC(=O)Cn2cc(COc3ccc(N4C(=O)c5ccccc5C4=O)cc3)nn2)cc1 [Compound 11d, 2-(4-((4-(1,3-dioxoisoindolin-2-yl)phenoxy)methyl)-1H-1,2,3-triazol-1-yl)-N-(4-ethylphenyl)acetamide]	202 to 204	491.68 ± 0.11		significant decrease in the inhibitory activity		
O=C(Cn1cc(COc2ccc(N3C(=O)c4ccccc4C3=O)cc2)nn1)Nc1cccc(F)c1 [Compound 11e, 2-(4-((4-(1,3-dioxoisoindolin-2-yl)phenoxy)methyl)-1H-1,2,3-triazol-1-yl)-N-(3-fluorophenyl)acetamide]	204 to 206	188.3 ± 0.27				
O=C(Cn1cc(COc2ccc(N3C(=O)c4ccccc4C3=O)cc2)nn1)Nc1cccc(Cl)c1 [Compound 11f, N-(3-chlorophenyl)-2-(4-((4-(1,3-dioxoisoindolin-2-yl)phenoxy)methyl)-1H-1,2,3-triazol-1-yl)acetamide]	210 to 212	112.16 ± 0.03				
O=C(Cn1cc(COc2ccc(N3C(=O)c4ccccc4C3=O)cc2)nn1)Nc1cccc(Cl)c1Cl [Compound 11g, N-(2,3-dichlorophenyl)-2-(4-((4-(1,3-dioxoisoindolin-2-yl)phenoxy)methyl)-1H-1,2,3-triazol-1-yl)acetamide]	203 to 205	239.1 ± 0.41		moderate anti-α-glucisidase activity		
O=C(Cn1cc(COc2ccc(N3C(=O)c4ccccc4C3=O)cc2)nn1)Nc1ccc(Cl)cc1Cl [Compound 11h, N-(2,4-dichlorophenyl)-2-(4-((4-(1,3-dioxoisoindolin-2-yl)phenoxy)methyl)-1H-1,2,3-triazol-1-yl)acetamide]	232 to 234	284 ± 0.41				
O=C(Cn1cc(COc2ccc(N3C(=O)c4ccccc4C3=O)cc2)nn1)Nc1c(Cl)cccc1Cl [Compound 11i, N-(2,6-dichlorophenyl)-2-(4-((4-(1,3-dioxoisoindolin-2-yl)phenoxy)methyl)-1H-1,2,3-triazol-1-yl)acetamide]	202 to 204	46.2 ± 0.89				
O=C(Cn1cc(COc2ccc(N3C(=O)c4ccccc4C3=O)cc2)nn1)Nc1ccc(Br)cc1 [Compound 11j, N-(4-bromophenyl)-2-(4-((4-(1,3-dioxoisoindolin-2-yl)phenoxy)methyl)-1H-1,2,3-triazol-1-yl)acetamide]	237 to 239	45.26 ± 0.03		moderate anti-α-glucisidase activity	competitive inhibitor	50.4
O=C(Cn1cc(COc2ccc(N3C(=O)c4ccccc4C3=O)cc2)nn1)Nc1ccc([N+](=O)[O-])cc1 [Compound 11k, 2-(4-((4-(1,3-dioxoisoindolin-2-yl)phenoxy)methyl)-1H-1,2,3-triazol-1-yl)-N-(4-nitrophenyl)acetamide]	260 to 262	> 750		complete loss of inhibitory activity		
Cc1cc([N+](=O)[O-])ccc1NC(=O)Cn1cc(COc2ccc(N3C(=O)c4ccccc4C3=O)cc2)nn1 [Compound 11l, 2-(4-((4-(1,3-dioxoisoindolin-2-yl)phenoxy)methyl)-1H-1,2,3-triazol-1-yl)-N-(2-methyl-4-nitrophenyl)acetamide]	228 to 230	273.3 ± 0.28				
O=C(Cn1cc(COc2ccc(N3C(=O)c4ccccc4C3=O)cc2)nn1)NCc1ccccc1 [Compound 11m, N-benzyl-2-(4-((4-(1,3-dioxoisoindolin-2-yl)phenoxy)methyl)-1H-1,2,3-triazol-1-yl)acetamide]	201 to 203	> 750		inactive		
O=C(Cn1cc(COc2ccc(N3C(=O)c4ccccc4C3=O)cc2)nn1)NCc1ccc(F)cc1 [Compound 11n, 2-(4-((4-(1,3-dioxoisoindolin-2-yl)phenoxy)methyl)-1H-1,2,3-triazol-1-yl)-N-(4-fluorobenzyl)acetamide]	204 to 206	685.99 ± 0.32				
